From patent publication US20220089592A1, “IMIDAZO[1,2-A]PYRIDINYL DERIVATIVES AS IRAK4 INHIBITORS” (priority 2019, published 2022)
Counter-ions that a name gives are not always drawn.

These compounds were tested against T1, IRAK4 (Homo sapiens, UniProt Q9NWZ3) (assay: 2-hour 1 mM ATP IRAK4 Biochemical assay (as above, but with 100 pM IRAK4 and 1 mM ATP)). Conditions: IRAK4 MSD BIOCHEMICAL (1 mM ATP) IC50 (μM), 100 pM IRAK4, 2 hours.
T1 sequence (Q9NWZ3 1-460): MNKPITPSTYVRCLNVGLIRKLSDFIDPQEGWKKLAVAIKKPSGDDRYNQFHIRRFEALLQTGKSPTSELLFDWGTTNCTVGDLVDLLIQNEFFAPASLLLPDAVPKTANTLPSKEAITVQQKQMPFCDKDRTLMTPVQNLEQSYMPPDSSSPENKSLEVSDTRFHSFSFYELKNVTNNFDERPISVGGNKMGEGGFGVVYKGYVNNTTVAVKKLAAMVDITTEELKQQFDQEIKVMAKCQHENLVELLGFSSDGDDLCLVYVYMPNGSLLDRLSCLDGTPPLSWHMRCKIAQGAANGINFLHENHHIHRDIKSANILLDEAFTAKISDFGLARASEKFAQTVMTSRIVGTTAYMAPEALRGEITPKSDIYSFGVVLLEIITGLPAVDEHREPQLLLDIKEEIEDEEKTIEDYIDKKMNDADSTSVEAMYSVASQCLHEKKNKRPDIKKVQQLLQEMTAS
Description: The 2-hour 10 μM ATP Biochemical Assay employs a MesoScale Detection (MSD) format.
The activity is quenched with 11 μl of 70 mM EDTA, pH 8.
To detect the phosphorylated biotinylated peptide substrate, 30 μl of the quenched reaction mixture is added to equivalent wells of a 384 well streptavidin coated MesoScale plate (Meso Scale Discovery #L21SA-1). After a 1 hour incubation of the plate for 1 hour at room temperature with gentle mixing, the plate wells are washed 3 times with 50 mM Tris, pH 7.5, 150 mM NaCl, 0.02% Tween-20.
A 25 μl volume of 1:500 anti-P-Threonine Rabbit polyclonal Antibody plus 1:500 Goat-anti-Rabbit Sulfo Tag Antibody (Meso Scale Discovery R32AB-1) in 50 mM Tris, pH 7.5, 150 mM NaCl, 0.02% Tween-20 plus 2% BSA is then added to each well. After a 1-hour incubation of the plate for 1 hour at room temperature with gentle mixing, the plate wells are washed, 3 times with 50 mM Tris, pH 7.5, 150 mM NaCl, 0.02% Tween-20. A 40 μl volume of 2×MSD Read Buffer (Meso Scale Discovery R92TC-1) is added to each well, and the plate is read immediately in an MSD Plate Reader (Meso Scale Discovery).
The 2-hour 1 mM ATP IRAK4 Biochemical assay was performed as described above, but with 100 pM IRAK4 and 1 mM ATP.

| Structure (SMILES) | IC50 [µM] |
| --- | --- |
| COc1cc(NC(=O)c2cccc(C(F)F)n2)cn2cc(C3CCCOC3)nc12 (racemic) [Example 268, 6-(difluoromethyl)-N-(8-methoxy-2-(tetrahydro-2H-pyran-3-yl)imidazo[1,2-a]pyridin-6-yl)picolinamide] | 0.002 |
| COc1ncccc1C(=O)Nc1cn2cc(C34COC(C)(C3)C4)nc2cc1OC(C)C(F)(F)F (racemic) [Example 317, 2-methoxy-N-(2-(1-methyl-2-oxabicyclo[2.1.1]hexan-4-yl)-7-((1,1,1-trifluoropropan-2-yl)oxy)imidazo[1,2-a]pyridin-6-yl)nicotinamide] | 0.001 |
| CCOc1cc(NC(=O)c2cccc(C(F)F)n2)cn2cc([C@@H]3C4COC[C@H]43)nc12 (relative stereo) [Example 306, N-(2-((1R*,5S*,6s*)-3-oxabicyclo[3.1.0]hexan-6-yl)-8-ethoxyimidazo[1,2-a]pyridin-6-yl)-6-(difluoromethyl)picolinamide] | 0.007 |
| CCOc1cc2nc([C@@H]3C[C@@H]3F)cn2cc1NC(=O)c1cccc(C(F)F)n1 (relative stereo) [Example 519, Cis 6-(difluoromethyl)-N-(7-ethoxy-2-(2-fluorocyclopropyl)imidazo[1,2-a]pyridin-6-yl)picolinamide hydrochloride] | 0.008 |
| COc1cc(NC(=O)c2cccc(C(F)F)n2)cn2cc(C3CCCOC3)nc12 (single isomer, unassigned) [Example 269, 6-(difluoromethyl)-N-(8-methoxy-2-(tetrahydro-2H-pyran-3-yl)imidazo[1,2-a]pyridin-6-yl)picolinamide] | 0.004 |
| COc1cc(NC(=O)c2cccc(C(F)F)n2)cn2cc(C3CCCOC3)nc12 (single isomer, unassigned) [Example 270, 6-(difluoromethyl)-N-(8-methoxy-2-(tetrahydro-2H-pyran-3-yl)imidazo[1,2-a]pyridin-6-yl)picolinamide] | 0.003 |
| COc1nc(NC(=O)c2cccc(C(F)F)n2)cn2cc([C@@]34CC[C@@](C)(C3)OC4)nc12 (single isomer, unassigned) [Example 276, 6-(Difluoromethyl)-N-(8-methoxy-2-((1S*,4R*)-1-methyl-2-oxabicyclo[2.2.1]heptan-4-yl)imidazo[1,2-a]pyrazin-6-yl)picolinamide] | 0.005 |
| COc1nc(NC(=O)c2cccc(C(F)F)n2)cn2cc([C@@]34CC[C@@](C)(C3)OC4)nc12 (single isomer, unassigned) [Example 277, 6-(Difluoromethyl)-N-(8-methoxy-2-((1R*,4S*)-1-methyl-2-oxabicyclo[2.2.1]heptan-4-yl)imidazo[1,2-a]pyrazin-6-yl)picolinamide] | 0.007 |
| CCOc1cc(NC(=O)c2cccc(C(F)F)n2)cn2cc(C3CCCOC3)nc12 (single isomer, unassigned) [Example 285, 6-(difluoromethyl)-N-(8-ethoxy-2-(tetrahydro-2H-pyran-3-yl)imidazo[1,2-a]pyridin-6-yl)picolinamide] | 0.006 |
| CCOc1cc(NC(=O)c2cccc(C(F)F)n2)cn2cc(C3CCCOC3)nc12 (single isomer, unassigned) [Example 286, 6-(difluoromethyl)-N-(8-ethoxy-2-(tetrahydro-2H-pyran-3-yl)imidazo[1,2-a]pyridin-6-yl)picolinamide] | 0.005 |
| CCOc1cc(NC(=O)c2cccc(C(F)(F)F)n2)cn2cc(C3CCCOC3)nc12 (single isomer, unassigned) [Example 287, N-(8-ethoxy-2-(tetrahydro-2H-pyran-3-yl)imidazo[1,2-a]pyridin-6-yl)-6-(trifluoromethyl)picolinamide] | 0.006 |
| CCOc1cc(NC(=O)c2cccc(C(F)(F)F)n2)cn2cc(C3CCCOC3)nc12 (single isomer, unassigned) [Example 288, N-(8-ethoxy-2-(tetrahydro-2H-pyran-3-yl)imidazo[1,2-a]pyridin-6-yl)-6-(trifluoromethyl)picolinamide] | 0.008 |
| COc1nc(NC(=O)c2cccc(C(F)F)n2)cn2cc(C3CCCOC3)nc12 (single isomer, unassigned) [Example 297, 6-(difluoromethyl)-N-(8-methoxy-2-(tetrahydro-2H-pyran-3-yl)imidazo[1,2-a]pyrazin-6-yl)picolinamide] | 0.004 |
| COc1nc(NC(=O)c2cccc(C(F)(F)F)n2)cn2cc(C3CCCOC3)nc12 (single isomer, unassigned) [Example 299, N-(8-methoxy-2-(tetrahydro-2H-pyran-3-yl)imidazo[1,2-a]pyrazin-6-yl)-6-(trifluoromethyl)picolinamide] | 0.007 |
| COc1nc(NC(=O)c2cccc(C(F)(F)F)n2)cn2cc(C3CCCOC3)nc12 (single isomer, unassigned) [Example 300, N-(8-methoxy-2-(tetrahydro-2H-pyran-3-yl)imidazo[1,2-a]pyrazin-6-yl)-6-(trifluoromethyl)picolinamide] | 0.005 |
| O=C(Nc1cn2cc(C3CCCOC3)nc2c(OC(F)F)n1)c1cccc(C(F)F)n1 (single isomer, unassigned) [Example 302, N-(8-(difluoromethoxy)-2-(tetrahydro-2H-pyran-3-yl)imidazo[1,2-a]pyrazin-6-yl)-6-(difluoromethyl)picolinamide] | 0.008 |
| COc1ncccc1C(=O)Nc1cn2cc(C34COC(C)(C3)C4)nc2cc1OC(C)C(F)(F)F (single isomer, unassigned) [Example 318, 2-methoxy-N-(2-(1-methyl-2-oxabicyclo[2.1.1]hexan-4-yl)-7-((1,1,1-trifluoropropan-2-yl)oxy)imidazo[1,2-a]pyridin-6-yl)nicotinamide] | 0.005 |
| COc1ncccc1C(=O)Nc1cn2cc(C34COC(C)(C3)C4)nc2cc1OC(C)C(F)(F)F (single isomer, unassigned) [Example 319, 2-methoxy-N-(2-(1-methyl-2-oxabicyclo[2.1.1]hexan-4-yl)-7-((1,1,1-trifluoropropan-2-yl)oxy)imidazo[1,2-a]pyridin-6-yl)nicotinamide] | 0.001 |
| CCC(C)Oc1c(NC(=O)c2cccnc2OC)cn2cc(C34COC(C)(C3)C4)nc2c1F (single isomer, unassigned) [Example 327, N-(7-(sec-butoxy)-8-fluoro-2-(1-methyl-2-oxabicyclo[2.1.1]hexan-4-yl)imidazo[1,2-a]pyridin-6-yl)-2-methoxynicotinamide] | 0.02 |
| CCC(C)Oc1c(NC(=O)c2cccnc2OC)cn2cc(C34COC(C)(C3)C4)nc2c1F (single isomer, unassigned) [Example 328, N-(7-(sec-butoxy)-8-fluoro-2-(1-methyl-2-oxabicyclo[2.1.1]hexan-4-yl)imidazo[1,2-a]pyridin-6-yl)-2-methoxynicotinamide] | 0.004 |
| CCOc1cc2nc(CCCOC)cn2cc1NC(=O)c1cccc(C(F)F)n1 [Example 12, 6-(difluoromethyl)-N-(7-ethoxy-2-(3-methoxypropyl)imidazo[1,2-a]pyridin-6-yl)picolinamide] | 0.001 |
| CCOc1cc2nc(CC3CCOC3)cn2cc1NC(=O)c1cccc(C(F)F)n1 (centres unmarked) [Example 14, 6-(difluoromethyl)-N-(7-ethoxy-2-((tetrahydrofuran-3-yl)methyl)imidazo[1,2-a]pyridin-6-yl)picolinamide] | 0.001 |
| CCOc1cc2nc(C3CN(CC(F)(F)F)C3)cn2cc1NC(=O)c1cccc(C(F)F)n1 [Example 77, 6-(difluoromethyl)-N-(7-ethoxy-2-(1-(2,2,2-trifluoroethyl)azetidin-3-yl)imidazo[1,2-a]pyridin-6-yl)picolinamide] | 0.001 |
| CCOc1cc2nc(C3CN(CC(F)F)C3)cn2cc1NC(=O)c1cccc(C(F)F)n1 [Example 78, N-(2-(1-(2,2-difluoroethyl)azetidin-3-yl)-7-ethoxyimidazo[1,2-a]pyridin-6-yl)-6-(difluoromethyl)picolinamide] | 0.001 |
| CC1(C)CCC1Oc1cc2nc(C3CCOCC3)cn2cc1NC(=O)c1cccc(C(F)F)n1 (centres unmarked) [Example 177, 6-(difluoromethyl)-N-(7-(2,2-dimethylcyclobutoxy)-2-(tetrahydro-2H-pyran-4-yl)imidazo[1,2-a]pyridin-6-yl)picolinamide] | 0.001 |

Same assay, conditions: read-out: IRAK4 MSD BIOCHEMICAL (1 mM ATP) IC50, 100 pM IRAK4, 2 hours

| Structure (SMILES) | IC50 [µM] |
| --- | --- |
| COc1nc(NC(=O)c2cccc(C(F)F)n2)cn2cc(C3CCCOC3)nc12 (single isomer, unassigned) [Example 298, 6-(difluoromethyl)-N-(8-methoxy-2-(tetrahydro-2H-pyran-3-yl)imidazo[1,2-a]pyrazin-6-yl)picolinamide] | 0.004 |
